Test results reported in PubChem BioAssay (NCI).
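Dose response: 5 concentrations. Exposure: 48 h. Format: 96-well plates. Endpoint: linear interpolation; highest concentration if not reached. GI50 is the concentration that inhibits growth by half. Definition used: TGI = concentration required for complete inhibition of growth.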

Experiments:
Assay in all cases: NCI anticancer screen, dose series, 48 h
786-0 renal = tested on: 786-0 renal
A498 renal = tested on: A498 renal
A549 NSCLC = tested on: A549 NSCLC
ACHN renal = tested on: ACHN renal
BT-549 breast = tested on: BT-549 breast
CAKI-1 renal = tested on: CAKI-1 renal
CCRF-CEM leukemia = tested on: CCRF-CEM leukemia
COLO 205 colon = tested on: COLO 205 colon
DU-145 prostate = tested on: DU-145 prostate
EKVX NSCLC = tested on: EKVX NSCLC
HCC-2998 colon = tested on: HCC-2998 colon
HCT-116 colon = tested on: HCT-116 colon
HCT-15 colon = tested on: HCT-15 colon
HL-60(TB) leukemia = tested on: HL-60(TB) leukemia
HOP-62 NSCLC = tested on: HOP-62 NSCLC
HOP-92 NSCLC = tested on: HOP-92 NSCLC
HS 578T breast = tested on: HS 578T breast
HT29 colon = tested on: HT29 colon
IGROV1 ovarian = tested on: IGROV1 ovarian
K-562 leukemia = tested on: K-562 leukemia
KM12 colon = tested on: KM12 colon
LOX IMVI melanoma = tested on: LOX IMVI melanoma
MALME-3M melanoma = tested on: MALME-3M melanoma
MCF7 breast = tested on: MCF7 breast
MDA-MB-231 breast = tested on: MDA-MB-231 breast
MOLT-4 leukemia = tested on: MOLT-4 leukemia
NCI-H226 lung = tested on: NCI-H226 lung
NCI-H23 lung = tested on: NCI-H23 lung
NCI-H460 lung = tested on: NCI-H460 lung
NCI-H522 lung = tested on: NCI-H522 lung
OVCAR-3 ovarian = tested on: OVCAR-3 ovarian
OVCAR-4 ovarian = tested on: OVCAR-4 ovarian
OVCAR-5 ovarian = tested on: OVCAR-5 ovarian
OVCAR-8 ovarian = tested on: OVCAR-8 ovarian
PC-3 prostate = tested on: PC-3 prostate
RPMI-8226 leukemia = tested on: RPMI-8226 leukemia
RXF 393 renal = tested on: RXF 393 renal
SF-268 CNS = tested on: SF-268 CNS
SF-295 CNS = tested on: SF-295 CNS
SF-539 CNS = tested on: SF-539 CNS
SK-MEL-28 melanoma = tested on: SK-MEL-28 melanoma
SK-MEL-5 melanoma = tested on: SK-MEL-5 melanoma
SK-OV-3 ovarian = tested on: SK-OV-3 ovarian
SN12C renal = tested on: SN12C renal
SNB-19 CNS = tested on: SNB-19 CNS
SNB-75 CNS = tested on: SNB-75 CNS
SR leukemia = tested on: SR leukemia
SW-620 colon = tested on: SW-620 colon
T-47D breast = tested on: T-47D breast
TK-10 renal = tested on: TK-10 renal
U251 CNS = tested on: U251 CNS
UACC-257 melanoma = tested on: UACC-257 melanoma
UACC-62 melanoma = tested on: UACC-62 melanoma
UO-31 renal = tested on: UO-31 renal

Question: How did the GI50 (786-0 renal) turn out when `NC(=Nc1ccc(OCCCCCCCCn2ccnn2)cc1)c1ccccc1` was run?
Answer: 643 nM

Question: And the TGI (786-0 renal)?
Answer: > 44100 nM

Question: What about the GI50 (A498 renal) of the same compound?
Answer: 4750 nM

Question: And the TGI (A498 renal)?
Answer: 28400 nM

Question: What about the GI50 (A549 NSCLC) of the same compound?
Answer: 458 nM

Question: And the TGI (A549 NSCLC)?
Answer: > 46300 nM

Question: What about the GI50 (ACHN renal) of the same compound?
Answer: 714 nM

Question: And the TGI (ACHN renal)?
Answer: 24700 nM

Question: And the GI50 (BT-549 breast)?
Answer: 656 nM

Question: What about the TGI (BT-549 breast) of the same compound?
Answer: 12200 nM

Question: What about the GI50 (CAKI-1 renal) of the same compound?
Answer: 260 nM

Question: What about the TGI (CAKI-1 renal) of the same compound?
Answer: 21000 nM

Question: What about the GI50 (CCRF-CEM leukemia) of the same compound?
Answer: 271 nM

Question: What about the TGI (CCRF-CEM leukemia) of the same compound?
Answer: 19400 nM

Question: What about the GI50 (COLO 205 colon) of the same compound?
Answer: 238 nM

Question: And the TGI (COLO 205 colon)?
Answer: 1140 nM

Question: What about the GI50 (DU-145 prostate) of the same compound?
Answer: 446 nM

Question: What about the TGI (DU-145 prostate) of the same compound?
Answer: 24600 nM

Question: What about the GI50 (EKVX NSCLC) of the same compound?
Answer: 286 nM

Question: And the TGI (EKVX NSCLC)?
Answer: > 40900 nM

Question: What about the GI50 (HCC-2998 colon) of the same compound?
Answer: 535 nM

Question: What about the TGI (HCC-2998 colon) of the same compound?
Answer: 11200 nM

Question: What about the GI50 (HCT-116 colon) of the same compound?
Answer: 325 nM

Question: And the TGI (HCT-116 colon)?
Answer: 12700 nM

Question: What about the GI50 (HCT-15 colon) of the same compound?
Answer: 236 nM

Question: And the TGI (HCT-15 colon)?
Answer: 22900 nM

Question: And the GI50 (HL-60(TB) leukemia)?
Answer: 239 nM

Question: And the TGI (HL-60(TB) leukemia)?
Answer: 2900 nM

Question: What about the GI50 (HOP-62 NSCLC) of the same compound?
Answer: 466 nM

Question: And the TGI (HOP-62 NSCLC)?
Answer: 15000 nM

Question: What about the GI50 (HOP-92 NSCLC) of the same compound?
Answer: 1200 nM

Question: What about the TGI (HOP-92 NSCLC) of the same compound?
Answer: 28800 nM

Question: What about the GI50 (HS 578T breast) of the same compound?
Answer: 271 nM

Question: And the TGI (HS 578T breast)?
Answer: 7440 nM

Question: What about the GI50 (HT29 colon) of the same compound?
Answer: 293 nM

Question: And the TGI (HT29 colon)?
Answer: 884 nM

Question: And the GI50 (IGROV1 ovarian)?
Answer: 564 nM

Question: What about the TGI (IGROV1 ovarian) of the same compound?
Answer: 16800 nM

Question: And the GI50 (K-562 leukemia)?
Answer: 144 nM

Question: What about the TGI (K-562 leukemia) of the same compound?
Answer: > 56000 nM

Question: And the GI50 (KM12 colon)?
Answer: 269 nM

Question: And the TGI (KM12 colon)?
Answer: 19000 nM

Question: And the GI50 (LOX IMVI melanoma)?
Answer: 482 nM

Question: And the TGI (LOX IMVI melanoma)?
Answer: 13100 nM

Question: What about the GI50 (MALME-3M melanoma) of the same compound?
Answer: 300 nM

Question: What about the TGI (MALME-3M melanoma) of the same compound?
Answer: 15900 nM

Question: What about the GI50 (MCF7 breast) of the same compound?
Answer: 124 nM

Question: And the TGI (MCF7 breast)?
Answer: 18800 nM

Question: And the GI50 (MDA-MB-231 breast)?
Answer: 557 nM

Question: What about the TGI (MDA-MB-231 breast) of the same compound?
Answer: 12700 nM

Question: What about the GI50 (MOLT-4 leukemia) of the same compound?
Answer: 585 nM

Question: What about the TGI (MOLT-4 leukemia) of the same compound?
Answer: > 49600 nM

Question: What about the GI50 (NCI-H226 lung) of the same compound?
Answer: 853 nM

Question: What about the TGI (NCI-H226 lung) of the same compound?
Answer: 12100 nM

Question: What about the GI50 (NCI-H23 lung) of the same compound?
Answer: 458 nM

Question: And the TGI (NCI-H23 lung)?
Answer: 17900 nM

Question: And the GI50 (NCI-H460 lung)?
Answer: 208 nM

Question: And the TGI (NCI-H460 lung)?
Answer: 10300 nM

Question: What about the GI50 (NCI-H522 lung) of the same compound?
Answer: 207 nM

Question: And the TGI (NCI-H522 lung)?
Answer: 1900 nM

Question: And the GI50 (OVCAR-3 ovarian)?
Answer: 126 nM

Question: What about the TGI (OVCAR-3 ovarian) of the same compound?
Answer: 5000 nM

Question: What about the GI50 (OVCAR-4 ovarian) of the same compound?
Answer: 4260 nM

Question: What about the TGI (OVCAR-4 ovarian) of the same compound?
Answer: > 62900 nM

Question: What about the GI50 (OVCAR-5 ovarian) of the same compound?
Answer: 432 nM

Question: What about the TGI (OVCAR-5 ovarian) of the same compound?
Answer: 17300 nM

Question: What about the GI50 (OVCAR-8 ovarian) of the same compound?
Answer: 462 nM

Question: And the TGI (OVCAR-8 ovarian)?
Answer: 3970 nM

Question: And the GI50 (PC-3 prostate)?
Answer: 337 nM

Question: And the TGI (PC-3 prostate)?
Answer: > 44900 nM

Question: And the GI50 (RPMI-8226 leukemia)?
Answer: 404 nM

Question: And the TGI (RPMI-8226 leukemia)?
Answer: 17800 nM

Question: What about the GI50 (RXF 393 renal) of the same compound?
Answer: 304 nM

Question: And the TGI (RXF 393 renal)?
Answer: 6290 nM

Question: And the GI50 (SF-268 CNS)?
Answer: 1170 nM

Question: And the TGI (SF-268 CNS)?
Answer: 25400 nM

Question: What about the GI50 (SF-295 CNS) of the same compound?
Answer: 204 nM

Question: And the TGI (SF-295 CNS)?
Answer: 11500 nM

Question: What about the GI50 (SF-539 CNS) of the same compound?
Answer: 239 nM

Question: And the TGI (SF-539 CNS)?
Answer: 870 nM

Question: What about the GI50 (SK-MEL-28 melanoma) of the same compound?
Answer: 662 nM

Question: And the TGI (SK-MEL-28 melanoma)?
Answer: 22900 nM

Question: What about the GI50 (SK-MEL-5 melanoma) of the same compound?
Answer: 157 nM

Question: What about the TGI (SK-MEL-5 melanoma) of the same compound?
Answer: 1720 nM

Question: What about the GI50 (SK-OV-3 ovarian) of the same compound?
Answer: 532 nM

Question: What about the TGI (SK-OV-3 ovarian) of the same compound?
Answer: 32800 nM

Question: What about the GI50 (SN12C renal) of the same compound?
Answer: 495 nM

Question: And the TGI (SN12C renal)?
Answer: 16100 nM

Question: What about the GI50 (SNB-19 CNS) of the same compound?
Answer: 757 nM

Question: What about the TGI (SNB-19 CNS) of the same compound?
Answer: > 49900 nM

Question: And the GI50 (SNB-75 CNS)?
Answer: 163 nM

Question: And the TGI (SNB-75 CNS)?
Answer: 29200 nM

Question: And the GI50 (SR leukemia)?
Answer: 606 nM

Question: What about the TGI (SR leukemia) of the same compound?
Answer: > 100000 nM

Question: And the GI50 (SW-620 colon)?
Answer: 148 nM

Question: What about the TGI (SW-620 colon) of the same compound?
Answer: > 40800 nM

Question: And the GI50 (T-47D breast)?
Answer: 449 nM

Question: What about the TGI (T-47D breast) of the same compound?
Answer: 34400 nM

Question: What about the GI50 (TK-10 renal) of the same compound?
Answer: 3000 nM

Question: And the TGI (TK-10 renal)?
Answer: 45000 nM

Question: What about the GI50 (U251 CNS) of the same compound?
Answer: 427 nM

Question: And the TGI (U251 CNS)?
Answer: 28800 nM

Question: What about the GI50 (UACC-257 melanoma) of the same compound?
Answer: 952 nM

Question: What about the TGI (UACC-257 melanoma) of the same compound?
Answer: 18500 nM

Question: And the GI50 (UACC-62 melanoma)?
Answer: 215 nM

Question: And the TGI (UACC-62 melanoma)?
Answer: 13100 nM

Question: What about the GI50 (UO-31 renal) of the same compound?
Answer: 565 nM

Question: What about the TGI (UO-31 renal) of the same compound?
Answer: 19900 nM
